Laboratory results taken from patent US20240270809A1, “ORAL GLP RECEPTOR AGONISTS” (priority 2020, published 2024).
Positions of bridges follow the written chain, without caps; N, C: chain ends. Non-standard residues stand in square brackets, D forms with d. Residues, ends and D or L forms follow the SMILES beside them. *: point of attachment. Malonyl(2,2-Me2,histaminyl) = CC(C)(C(=O)NCCc1cnc[nH]1)C(=O)*; Ala(1H-tetrazol-5-yl) = N[C@@H](Cc1nnn[nH]1)C(=O)O; αMePhe(2-F) = C[C@](N)(Cc1ccccc1F)C(=O)O; αMeL = CC(C)C[C@](C)(N)C(=O)O; Nle = CCCC[C@H](N)C(=O)O; Aib = CC(C)(N)C(=O)O

Legend:
Type in all cases: cell-based
human GLP2 receptor = target: T1, human GLP2 receptor (Homo sapiens, UniProt O95838); test: cAMP accumulation assay, functional agonism of human GLP2 receptor; conditions: HEK cells infected with human GLP2 receptor BacMam virus, HTRF cAMP; for Emax: HEK293, read-out: Human GLP-2R agonist cAMP Emax; for EC50: read-out: Human GLP-2R agonist cAMP pEC50 (converted)
T1 construct: expressed in transfected cells; host or cells: HEK cells, BacMam virus transduction
T1 sequence (O95838 1-553): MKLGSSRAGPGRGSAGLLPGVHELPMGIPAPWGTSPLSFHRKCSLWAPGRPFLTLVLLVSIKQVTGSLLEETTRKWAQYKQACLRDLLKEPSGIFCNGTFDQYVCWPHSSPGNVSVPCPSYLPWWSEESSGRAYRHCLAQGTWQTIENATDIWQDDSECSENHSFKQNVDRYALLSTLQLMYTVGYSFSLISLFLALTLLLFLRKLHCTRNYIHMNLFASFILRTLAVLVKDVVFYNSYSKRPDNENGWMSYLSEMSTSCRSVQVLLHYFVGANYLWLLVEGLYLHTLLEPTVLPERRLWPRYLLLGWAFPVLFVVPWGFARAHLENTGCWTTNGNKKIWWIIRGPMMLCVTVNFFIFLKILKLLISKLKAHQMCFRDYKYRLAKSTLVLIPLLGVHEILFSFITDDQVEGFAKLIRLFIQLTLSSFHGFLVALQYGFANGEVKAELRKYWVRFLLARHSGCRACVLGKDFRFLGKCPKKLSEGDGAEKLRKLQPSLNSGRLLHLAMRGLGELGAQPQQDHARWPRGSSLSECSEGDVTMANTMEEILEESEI
Method in brief: (§1)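 cAMP by HTRF in BacMam-transduced HEK cells (24 h infection, frozen stocks); 0.5 mM IBMX in HBSS, 45 min, 37° C.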

human GLP1 receptor = target: T2, human GLP1 receptor (Homo sapiens, UniProt P43220); test: cAMP accumulation assay, functional agonism of human GLP1 receptor; conditions: HEK cells infected with human GLP1 receptor BacMam virus, HTRF cAMP; for Emax: HEK293, read-out: Human GLP-1R agonist cAMP Emax; for EC50: read-out: Human GLP-1R agonist cAMP pEC50 (converted)
T2 construct: expressed in transfected cells; host or cells: HEK cells, BacMam virus transduction
Method in brief: as §1

mouse GLP2 receptor = target: T3, mouse GLP2 receptor (Mus musculus, UniProt Q5IXF8); test: cAMP accumulation assay, functional agonism of mouse GLP2 receptor; conditions: HEK cells transiently transfected with mouse GLP2 receptor, HTRF cAMP; for Emax: HEK293, read-out: Mouse GLP-2R agonist cAMP Emax; for EC50: read-out: Mouse GLP-2R agonist cAMP pEC50 (converted)
T3 construct: expressed in transfected cells; host or cells: HEK cells, transient transfection with GeneJuice
T3 sequence (Q5IXF8 1-512): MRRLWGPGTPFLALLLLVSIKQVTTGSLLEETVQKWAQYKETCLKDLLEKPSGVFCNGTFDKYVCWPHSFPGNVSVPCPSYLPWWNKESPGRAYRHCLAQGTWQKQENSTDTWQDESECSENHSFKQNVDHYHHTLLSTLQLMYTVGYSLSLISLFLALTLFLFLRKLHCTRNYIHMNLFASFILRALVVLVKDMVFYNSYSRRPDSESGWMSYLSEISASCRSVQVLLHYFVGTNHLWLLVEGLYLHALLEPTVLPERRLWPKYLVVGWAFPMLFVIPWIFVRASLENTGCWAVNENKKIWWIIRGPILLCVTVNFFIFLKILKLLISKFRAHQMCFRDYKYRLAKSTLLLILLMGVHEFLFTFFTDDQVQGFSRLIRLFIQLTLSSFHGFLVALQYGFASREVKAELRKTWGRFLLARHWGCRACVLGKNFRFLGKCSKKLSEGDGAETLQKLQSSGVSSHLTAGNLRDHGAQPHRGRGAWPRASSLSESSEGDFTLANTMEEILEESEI
Procedure: CAMP production upon agonist stimulation of mouse GLP2 or GLP1 receptors was assessed utilizing HiRange cAMP kit (Cisbio). In brief, HEK cells were transiently transfected for 24 hours with cDNA using GeneJuice Transfection reagent (EMD Millipore) and frozen at −80° C. for later use in the assay. On the day, various concentrations of compounds were dispensed using ECHO-555 (LabCyte) to a total volume of 100 nl into a low volume 384-well Proxi plate (Perkin Elmer) followed by addition of 10 μl of cell suspension delivering 8000 cells per well. Cells were prepared in the assay buffer (HBSS (Lonza) supplemented with 0.5 mM IBMX (Tocris)). After 45 min incubation at 37° C., the reaction was stopped by addition of the HTRF detection reagents in the lysis buffer provided in the kit. Following 1-hour incubation at RT, plates were read on Pherastar FS (BMG Labtech, Inc.) using standard HTRF settings. Dotmatics Studies software was used for calculation of pEC50 values by fitting data to a four-parameter concentration response curve.

T2 sequence (P43220 24-463): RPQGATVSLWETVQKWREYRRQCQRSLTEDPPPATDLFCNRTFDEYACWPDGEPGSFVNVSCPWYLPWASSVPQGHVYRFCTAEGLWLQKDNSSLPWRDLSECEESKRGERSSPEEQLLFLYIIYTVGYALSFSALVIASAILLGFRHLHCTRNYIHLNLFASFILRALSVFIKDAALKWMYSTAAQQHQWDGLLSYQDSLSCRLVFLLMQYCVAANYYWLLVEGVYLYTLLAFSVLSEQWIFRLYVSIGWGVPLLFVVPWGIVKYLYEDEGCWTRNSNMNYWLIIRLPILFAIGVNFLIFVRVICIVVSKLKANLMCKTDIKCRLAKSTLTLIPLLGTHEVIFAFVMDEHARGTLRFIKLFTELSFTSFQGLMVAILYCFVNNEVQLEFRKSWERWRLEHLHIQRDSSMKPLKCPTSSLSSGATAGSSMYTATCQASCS

Structure (SMILES)	Emax (human GLP2 receptor)	EC50 (human GLP2 receptor)	Emax (human GLP1 receptor)	EC50 (human GLP1 receptor)	Emax (mouse GLP2 receptor)	EC50 (mouse GLP2 receptor)
CCCC[C@@H]1NC(=O)[C@H](CCC(=O)O)NC(=O)[C@@H](NC(=O)[C@H](CO)NC(=O)[C@](C)(Cc2ccccc2F)NC(=O)[C@H](CO)NC(=O)[C@@H](C)NC(=O)[C@H](CC(=O)O)NC(=O)C(C)(C)C(=O)NCCc2c[nH]cn2)CCCCNC(=O)C[C@@H](C(=O)N[C@@](C)(CC(C)C)C(=O)N[C@@H](CC(C)C)C(=O)N[C@@H](CC(=O)O)C(=O)N[C@H]2CCC(=O)NCCCC[C@@H](C(=O)N[C@@H](CC(=O)O)C(=O)N[C@@H](Cc3ccccc3)C(=O)N[C@H](C(=O)N[C@H]3CCC(=O)NCCCC[C@@H](C(=O)N[C@H]4CCC(=O)NCCCC[C@@H](C(N)=O)NC(=O)[C@H]([C@@H](C)O)NC(=O)[C@H]([C@@H](C)CC)NC(=O)[C@H](CCCCN)NC4=O)NC(=O)[C@H]([C@@H](C)CC)NC(=O)[C@H](CC(C)C)NC(=O)[C@H](Cc4c[nH]c5ccccc45)NC3=O)[C@@H](C)CC)NC(=O)[C@H](C)NC(=O)[C@H](C)NC(=O)[C@H](CCCCN)NC2=O)NC(=O)[C@@H](Cc2ccccc2)NC1=O [Example 50] ({Malonyl(2,2-Me2,histaminyl)}-D[dA]S[αMePhe(2-F)]SKE[Nle][dF]D[αMeL]LDEKAAKDFIEWLIKEKITK-NH2; lactam 6-10, 14-18, 22-26, 27-31 (inferred); C-terminus assumed)	102%	0.0251 nM	98.3%	0.1 nM	81%	7.94 nM
CCCC[C@@H]1NC(=O)[C@H](CCC(=O)O)NC(=O)[C@H](CC(=O)O)NC(=O)[C@@H](NC(=O)[C@H](Cc2ccccc2)NC(=O)[C@H](CO)NC(=O)CNC(=O)[C@H](CC(=O)O)NC(=O)C(C)(C)NC(=O)[C@@H](N)Cc2c[nH]cn2)CCC(=O)NCCCC[C@@H](C(=O)N[C@H]2CCC(=O)NCCCC[C@@H](C(=O)N[C@H]3CCCCNC(=O)C[C@@H](C(=O)N[C@@H](Cc4ccccc4)C(=O)N[C@H](C(=O)N[C@H]4CCC(=O)NCCCC[C@@H](C(=O)N[C@H]5CCCCNC(=O)CC[C@@H](C(N)=O)NC(=O)[C@H]([C@@H](C)O)NC(=O)[C@H]([C@@H](C)CC)NC(=O)[C@H](CCCCN)NC5=O)NC(=O)[C@H]([C@@H](C)CC)NC(=O)[C@H](CC(C)C)NC(=O)[C@H](Cc5c[nH]c6ccccc56)NC4=O)[C@@H](C)CC)NC(=O)[C@H](CCCCN)NC(=O)[C@H](C)NC(=O)[C@H](C)NC3=O)NC(=O)[C@H](CC(=O)O)NC(=O)[C@H](CC(C)C)NC(=O)[C@H]([C@@H](C)CC)NC2=O)NC1=O [Example 77] (H-H[Aib]DGSFEDE[Nle]KEILDKKAAKDFIEWLIKKKITE-NH2; lactam 7-11, 12-16, 17-21, 24-28, 29-33; N-terminus and C-terminus assumed)	102%	0.0631 nM	97.1%	0.501 nM	102%	3.16 nM
CCCC[C@H](NC(=O)[C@H](CCC(=O)O)NC(=O)[C@@H]1CC(=O)NCCCC[C@H](NC(=O)[C@H](CC(=O)O)NC(=O)C(C)(C)C(=O)NCCc2c[nH]cn2)C(=O)N[C@@H](CO)C(=O)N[C@@](C)(Cc2ccccc2F)C(=O)N[C@@H](CO)C(=O)N1)C(=O)N[C@H](Cc1ccccc1)C(=O)N[C@H](C(=O)N[C@@](C)(CC(C)C)C(=O)N[C@@H](CC(C)C)C(=O)N[C@@H](CC(=O)O)C(=O)N[C@H]1CCC(=O)NCCCC[C@@H](C(=O)N[C@@H](CC(=O)O)C(=O)N[C@@H](Cc2ccccc2)C(=O)N[C@H](C(=O)N[C@H]2CCC(=O)NCCCC[C@@H](C(=O)N[C@H]3CCC(=O)NCCCC[C@@H](C(N)=O)NC(=O)[C@H]([C@@H](C)O)NC(=O)[C@H]([C@@H](C)CC)NC(=O)[C@H](CCCCN)NC3=O)NC(=O)[C@H]([C@@H](C)CC)NC(=O)[C@H](CC(C)C)NC(=O)[C@H](Cc3c[nH]c4ccccc34)NC2=O)[C@@H](C)CC)NC(=O)[C@H](C)NC(=O)[C@H](C)NC(=O)[C@H](CCCCN)NC1=O)[C@@H](C)O [Example 65] ({Malonyl(2,2-Me2,histaminyl)}-DKS[αMePhe(2-F)]SDE[Nle][dF]T[αMeL]LDEKAAKDFIEWLIKEKITK-NH2; lactam 2-6, 14-18, 22-26, 27-31 (inferred); C-terminus assumed)	102%	0.0398 nM	97.9%	0.0398 nM	86.3%	6.31 nM
CCCC[C@H](NC(=O)[C@H](CCC(=O)O)NC(=O)[C@@H]1CCCCNC(=O)CC[C@H](NC(=O)[C@H](Cc2nn[nH]n2)NC(=O)C(C)(C)C(=O)NCCc2c[nH]cn2)C(=O)N[C@@H](CO)C(=O)N[C@@H](Cc2ccccc2)C(=O)N[C@@H](CO)C(=O)N1)C(=O)N[C@H](Cc1ccccc1)C(=O)N[C@H]1CCC(=O)NCCCC[C@@H](C(=O)N[C@H]2CCCCNC(=O)C[C@@H](C(=O)N[C@@H](Cc3ccccc3)C(=O)N[C@H](C(=O)N[C@H]3CCC(=O)NCCCC[C@@H](C(=O)N[C@H]4CCCCNC(=O)CC[C@@H](C(N)=O)NC(=O)[C@H]([C@@H](C)O)NC(=O)[C@H]([C@@H](C)CC)NC(=O)[C@H](CCCCN)NC4=O)NC(=O)[C@H]([C@@H](C)CC)NC(=O)[C@H](CC(C)C)NC(=O)[C@H](Cc4c[nH]c5ccccc45)NC3=O)[C@@H](C)CC)NC(=O)[C@H](CCCCN)NC(=O)[C@H](C)NC(=O)[C@H](C)NC2=O)NC(=O)[C@H](CC(=O)O)NC(=O)[C@H](CC(C)C)NC(=O)[C@H]([C@@H](C)CC)NC1=O [Example 79] ({Malonyl(2,2-Me2,histaminyl)}-[Ala(1H-tetrazol-5-yl)]ESFSKE[Nle][dF]EILDKKAAKDFIEWLIKKKITE-NH2; lactam 2-6, 10-14, 15-19, 22-26, 27-31 (inferred); C-terminus assumed)	103%	0.0316 nM	97.3%	0.251 nM	74.2%	3.16 nM
CCCC[C@H](NC(=O)[C@H](CCC(=O)O)NC(=O)[C@H](CC(=O)O)NC(=O)[C@H](CO)NC(=O)[C@](C)(Cc1ccccc1F)NC(=O)[C@H](CO)NC(=O)CNC(=O)[C@H](Cc1nn[nH]n1)NC(=O)C(C)(C)C(=O)NCCc1c[nH]cn1)C(=O)N[C@H](Cc1ccccc1)C(=O)N[C@H]1CCC(=O)NCCCC[C@@H](C(=O)N[C@H]2CCCCNC(=O)C[C@@H](C(=O)N[C@@H](Cc3ccccc3)C(=O)N[C@H](C(=O)N[C@H]3CCC(=O)NCCCC[C@@H](C(=O)N[C@H]4CCCCNC(=O)CC[C@@H](C(N)=O)NC(=O)[C@H]([C@@H](C)O)NC(=O)[C@H]([C@@H](C)CC)NC(=O)[C@H](CCCCN)NC4=O)NC(=O)[C@H]([C@@H](C)CC)NC(=O)[C@H](CC(C)C)NC(=O)[C@H](Cc4c[nH]c5ccccc45)NC3=O)[C@@H](C)CC)NC(=O)[C@H](CCCCN)NC(=O)[C@H](C)NC(=O)[C@H](C)NC2=O)NC(=O)[C@H](CC(=O)O)NC(=O)[C@H](CC(C)C)NC(=O)[C@H]([C@@H](C)CC)NC1=O [Example 53] ({Malonyl(2,2-Me2,histaminyl)}-[Ala(1H-tetrazol-5-yl)]GS[αMePhe(2-F)]SDE[Nle][dF]EILDKKAAKDFIEWLIKKKITE-NH2; lactam 10-14, 15-19, 22-26, 27-31; C-terminus assumed)	102%	0.02 nM	99.5%	0.00501 nM	103%	0.631 nM
